Assay results reported in patent US10064831B2, “Active substances and cosmetic or dermatological preparations containing said active substances for the care of the skin of patients of diabetes mellitus” (BEIERSDORF AG, priority 2015, dated 2018).

Test system: glyoxalases
Assay: induction of glyoxalase activity in skin cells
Type: cell-based
Settings: no method or numbers given

C=CC(C)(C)c1cc(/C=C/C(=O)c2ccc(O)cc2)c(OC)cc1O [licochalcone A]
activity of glyoxalases induced in skin cells: enhanced activity of glyoxalases
